Measurements: patent US7737125B2, “LNA antagonists targeting the androgen receptor” (Enzon Pharamaceuticals, Inc., priority 2007, dated 2010)
Strand notation (5' to 3'): a small letter for the sugar, then the base; units joined by * are phosphorothioate-linked, units joined directly phosphodiester-linked; [ ] holds rarer units or linkages, { } end groups; capitals alone tell only the bases. l = locked nucleic acid (LNA); [5mC] = 5-methylcytosine; d = 2'-deoxy (DNA)

Tests used:
[1] = system: human androgen receptor mRNA; experiment: Inhibition of androgen receptor mRNA expression in MCF7 cells, real-time PCR after transfection; assay type: cell-based; conditions: 16 nM oligonucleotide, AR mRNA normalised to GAPDH, down-regulation relative to mock transfected cells
Experimental: FIG. 1. Oligonucleotides presented in Table 3 were evaluated for their potential to knockdown the androgen receptor mRNA at concentrations of 1, 4 and 16 n-M in MCF7 cells 24 hours after transfection using Real-time PCR. All results were normalised to GAPDH and inhibition of AR mRNA is shown as percent of untreated control. Results shown are an average of three independent experiments.
MCF7 The human breast cancer cell line MCF7 was cultured in EagleMEM (Sigma)+10% fetal bovine serum (FBS)+2 mM Glutamax I+1×NEAA+gentamicin (25 μg/ml).
(§1) The cell lines listed in Example 4 were treated with an oligomer using the cationic liposome formulation LipofectAMINE 2000 (Gibco) as transfection vehicle. Cells were seeded in 6-well cell culture plates (NUNC) and treated when 80-90% confluent. Oligomer concentrations used ranged from 1 nM to 16 nM final concentration. Formulation of oligomer-lipid complexes were carried out essentially as described by the manufacturer using serum-free OptiMEM (Gibco) and a final lipid concentration of 5 μg/mL LipofectAMINE 2000. Cells were incubated at 37° C. for 4 hours and treatment was stopped by removal of oligomer-containing culture medium. Cells were washed and serum-containing media was added. After oligomer treatment, cells were allowed to recover for 20 hours before they were harvested for RNA analysis.
(§2) Total RNA was extracted from cells transfected as described above and using the Qiagen RNeasy kit (Qiagen cat. no. 74104) according to the manufacturer's instructions. First strand synthesis was performed using Reverse Transcriptase reagents from Ambion according to the manufacturer's instructions.
(§3) For each sample, the volume of 0.5 •g total RNA was adjusted to 10.8 •l with RNase free H2O and mixed with 2 •l random decamers (50 •M) and 4 •l dNTP mix (2.5 mM each dNTP) and heated to 70° C. for 3 min, after which the samples were rapidly cooled on ice. After cooling the samples on ice, 2 •l 10× Buffer RT, 1 •l MMLV Reverse Transcriptase (100 U/•l) and 0.25 •l RNase inhibitor (10 U/•l) were added to each sample, followed by incubation at 42° C. for 60 min, heat inactivation of the enzyme at 95° C. for 10 min and then cooling of the sample to 4° C.
(§4) The amount of human androgen receptor mRNA in the samples was quantified using the human androgen receptor ABI Prism Pre-Developed TaqMan Assay Reagents (Applied Biosystems cat. no. Hs00171172_m1) according to the manufacturer's instructions.
(§5) Glyceraldehyde-3-phosphate dehydrogenase (GAPDH) mRNA quantity was used as an endogenous control for normalizing any variance in sample preparation.
(§6) The cDNA from the first strand synthesis performed as described in Example 6 was diluted 2-20 times, and analyzed by real time quantitative PCR using Taquman 7500 FAST or 7900 FAST from Applied Biosystems. The primers and probe were mixed with 2× Taqman Fast Universal PCR master mix (2×) (Applied Biosystems Cat. #4364103) and added to 4 μl cDNA to a final volume of 10 μl. Each sample was analysed in duplicate. Standard curves were generated by assaying 2-fold dilutions of a cDNA that had been prepared on material purified from a cell line expressing the RNA of interest. Sterile H2O was used instead of cDNA for the no-template control. PCR program: 95° C. for 30 seconds, followed by 40 cycles of 95° C., 3 seconds, 60° C., 20-30 seconds. Relative quantities of target mRNA were determined from the calculated Threshold cycle using the Applied Biosystems Fast System SDS Software Version 1.3.1.21. or SDS Software Version 2.3.
(§7) Oligonucleotides presented in Table 3 were evaluated for their potential to knock down androgen receptor mRNA expression at concentrations of 1, 4 and 16 nM (see FIGS. 1 and 2).
(§8) The data in Table 3 are presented as percentage down-regulation relative to mock transfected cells at 16 nM. Lower case letters represent DNA monomers, bold, upper case letters represent β-D-oxy-LNA monomers. All cytosine bases in the LNA monomers are 5-methylcytosines. […]

[2] = system: human androgen receptor mRNA; experiment: Inhibition of androgen receptor mRNA expression in A549 cells, real-time PCR after transfection; assay type: cell-based; conditions: 16 nM oligonucleotide, AR mRNA normalised to GAPDH, down-regulation relative to mock transfected cells
Experimental: FIG. 2. Oligonucleotides presented in Table 3 were evaluated for their potential to knockdown the androgen receptor mRNA at concentrations of 1, 4 and 16 nM in A549 cells 24 hours after transfection using Real-time PCR. All results were normalised to GAPDH and inhibition of AR mRNA is shown as percent of untreated control. Results shown are an average of three independent experiments.
A549 The human lung cancer cell line […] was cultured in DMEM (Sigma)+10% fetal bovine serum (FBS)+2 mM Glutamax I+gentamicin (25 μg/ml).
as §1, §2, §3, §4, §5, §6, §7, §8

[3] = system: mouse androgen receptor mRNA; experiment: In vivo knock-down of AR mRNA expression in mouse liver (QPCR); conditions: nude mice, 100 mg/kg i.v. q3dx4, liver 24 h after last dosing, normalised to mouse GAPDH, relative to saline treated animals
Experimental: Nude mice were dosed i.v. q3dx4 with 100 mg/kg oligonucleotide (group size of 5 mice). The antisense oligonucleotides (SEQ ID:48, SEQ ID:51, SEQ ID:58, SEQ ID:63, SEQ ID:77) were dissolved in phosphate buffered saline. Animals were sacrificed 24 h after last dosing and liver tissue was sampled and stored in RNA later until RNA extraction and QPCR analysis. Total RNA was extracted and AR mRNA expression in liver samples was measured by QPCR as described in Example 7 using a mouse AR QPCR assay (cat. Mm01238475_m1, Applied Biosystems). Results were normalised to mouse GAPDH (cat. no. 4352339E, Applied Biosystems) and knock-own was quantitated relative to saline treated controls. The data in Table 4 are presented as percentage down-regulation relative to saline treated animals.

| Substance | Percent inhibition of Androgen receptor - MCF7 [1] | Percent inhibition of Androgen receptor - A549 [2] | Liver (% KD) of AR mRNA expression [3] |
| --- | --- | --- | --- |
| 5′-TsTsGscsascsasgsasgsastsgsAsTsC-3′ (antisense lT*lT*lG*dC*dA*dC*dA*dG*dA*dG*dA*dT*dG*lA*lT*l[5mC]) [SEQ ID NO: 72, LNA gapmer antisense oligonucleotide] | 79.2% | 90.4% | – |
| 5′-CsCsCscstsgsgsascstscsasgsAsTsG-3′ (antisense l[5mC]*l[5mC]*l[5mC]*dC*dT*dG*dG*dA*dC*dT*dC*dA*dG*lA*lT*lG) [SEQ ID NO: 46, LNA gapmer antisense oligonucleotide] | 89.4% | 82.8% | – |
| 5′-CsAsTscscsasasascstscststsGsAsG-3′ (antisense l[5mC]*lA*lT*dC*dC*dA*dA*dA*dC*dT*dC*dT*dT*lG*lA*lG) [SEQ ID NO: 66, LNA gapmer antisense oligonucleotide] | 79.8% | 95.3% | – |
| 5′-CsAsGsgscsasgsasasgsascsasTsCsT-3′ (antisense l[5mC]*lA*lG*dG*dC*dA*dG*dA*dA*dG*dA*dC*dA*lT*l[5mC]*lT) [SEQ ID NO: 76, LNA gapmer antisense oligonucleotide] | 85.9% | 94.3% | – |
| 5′-GsCsTststscsastsgscsascsasgsGsA-3′ (antisense lG*l[5mC]*lT*dT*dT*dC*dA*dT*dG*dC*dA*dC*dA*dG*lG*lA) [SEQ ID NO: 67, LNA gapmer antisense oligonucleotide] | 83.5% | 97.0% | – |
| 5′-GsAsGsasascscsastscscstscsAsCsC-3′ (antisense lG*lA*lG*dA*dA*dC*dC*dA*dT*dC*dC*dT*dC*lA*l[5mC]*l[5mC]) [SEQ ID NO: 44] | 80.1% | 63.8% | – |
| 5′-CsTsTsgsgscscscsascststsgsAsCsC-3′ (antisense l[5mC]*lT*lT*dG*dG*dC*dC*dC*dA*dC*dT*dT*dG*lA*l[5mC]*l[5mC]) [SEQ ID NO: 61, LNA gapmer antisense oligonucleotide] | 86.7% | 93.3% | – |
| 5′-CsAsTscscscstsgscststscsasTsAsA-3′ (antisense l[5mC]*lA*lT*dC*dC*dC*dT*dG*dC*dT*dT*dC*dA*lT*lA*lA) [SEQ ID NO: 57, LNA gapmer antisense oligonucleotide] | 89.5% | 88.9% | – |
| 5′-GsAsAsgststscsastscsasasasGsAsA-3′ (antisense lG*lA*lA*dG*dT*dT*dC*dA*dT*dC*dA*dA*dA*lG*lA*lA) [SEQ ID NO: 68, LNA gapmer antisense oligonucleotide] | 88.2% | 85.6% | – |
| 5′-TsCsCstsgsgsasgststsgsascsAsTsT-3′ (antisense lT*l[5mC]*l[5mC]*dT*dG*dG*dA*dG*dT*dT*dG*dA*dC*lA*lT*lT) [SEQ ID NO: 62, LNA gapmer antisense oligonucleotide] | 81.3% | 93.0% | – |
| 5′-TsTsTsgsascsascsasasgstsgsGsGsA-3′ (antisense lT*lT*lT*dG*dA*dC*dA*dC*dA*dA*dG*dT*dG*lG*lG*lA) [SEQ ID NO: 51, LNA gapmer antisense oligonucleotide] | – | – | 65.0 +/− 12.6% |
| 5′-GsGsAscscsasgsgstsasgscscsTsGsT-3′ (antisense lG*lG*lA*dC*dC*dA*dG*dG*dT*dA*dG*dC*dC*lT*lG*lT) [SEQ ID NO: 45, LNA gapmer antisense oligonucleotide] | 89.0% | 88.2% | – |
| 5′-GsCsAscsasasgsgsasgstsgsgsGsAsC-3′ (antisense lG*l[5mC]*lA*dC*dA*dA*dG*dG*dA*dG*dT*dG*dG*lG*lA*l[5mC]) [SEQ ID NO: 47, LNA gapmer antisense oligonucleotide] | 83.1% | 77.7% | – |
